Experimental data as given in paper PMC6986443, “T‐495, a novel low cooperative M1 receptor positive allosteric modulator, improves memory deficits associated with cholinergic dysfunction and is characterized by low gastrointestinal side effect risk” (Pharmacology Research & Perspectives, 2020).
Where two headings read alike, the source gives them in different places.

Key:
[1] = test system: IP1 production in the hippocampus, prefrontal cortex, striatum, and brainstem; experiment: In vivo IP1 assay, wild‐type and M1R KO mice; parameters: species or system mouse
Procedure: Eight‐week‐old Long‐Evans rats, 8‐ to 9‐week‐old C57BL/6J mice, and 22‐ or 29‐week‐old M1R KO mice and their WT littermates were used in this study. On the day of the experiment, animals were placed in individual cages and acclimated for more than 1 hour. A test compound or vehicle was administered 2 hours before the animals were sacrificed. […] LiCl (10 mmol/kg, s.c.) was injected 1 hour before sacrifice. In the repeated administration study, a test compound was administered to mice once daily for 13 days; on day 14, animals were treated with a test compound and LiCl (10 mmol/kg, s.c.) and then sacrificed. Animals were killed by decapitation, and blood was collected into tubes containing ethylenediaminetetraacetic acid for pharmacokinetic analysis; brains were quickly dissected, frozen on dry ice, and stored at −80°C until analysis. Brain tissues were homogenized in 19 (for rat tissues) or 39 (for mouse tissue) volumes of homogenization buffer (10 mmol/L HEPES pH 7.4, 50 mmol/L LiCl, 150 mmol/L NaCl, and 1% Triton X‐100), and the homogenate was incubated on a rotator for 1 hour, followed by centrifugation. The supernatant was diluted with 39 (for rat tissues) or 19 (for mouse tissues) volumes of dilution buffer (10 mmol/L HEPES pH 7.4, 50 mmol/L LiCl, and 150 mmol/L NaCl). IP1 and protein concentrations in the diluted supernatant were measured using IP‐One HTRF assay kit (Cisbio Bioassays) and BCA Protein Assay Kit (Thermo Fisher Scientific Inc), respectively, according to the manufacturers’ instructions. IP1 production was expressed as the ratio of IP1 to protein concentrations.

SD rats = test system: SD rats
Procedure: Seven‐ or 8‐week‐old SD rats were individually placed into observation cages. After an acclimation period of at least 1 hour, a test compound was administered to the rats. […] Cholinergic side effects, including diarrhea, lacrimation, salivation, miosis, and fasciculation, were assessed blindly, as described previously,27 and convulsion was scored using a modified Racine scale,37 as follows: stage 0, normal; stage 1, immobility; stage 2, forelimb and/or tail extension and rigid posture; stage 3, repetitive movements, head nodding, and gnawing; stage 4, rearing and falling; stage 5, continuous rearing and falling; stage 6, severe tonic‐clonic seizure with loss of postural control; and stage 7, death in the first 2 hours.

patients with AD = test system: patients with AD; parameters: method as in PMID 29955661; settings: cited from earlier work
selectivity panel = settings: cited from earlier work
Adrenergic β2 = target: T1, Adrenergic β2 (Homo sapiens, UniProt P07550); experiment: Selectivity panel; type: binding
T1 construct: purchased Eurofins Panlabs Taiwan Ltd
Excerpt: (§1) The selectivity of T‐495 at 10 μmol/L against a panel of 106 targets, including receptors, enzymes, ion channels, and transporters, was characterized (Eurofins Panlabs Taiwan Ltd., Taipei, Taiwan).

Angiotensin AT1 = target: T2, Angiotensin AT1 (Homo sapiens, UniProt P30556); experiment: Selectivity panel; type: binding
T2 construct: purchased Eurofins Panlabs Taiwan Ltd
Excerpt: as §1

Bradykinin B1 = target: T3, Bradykinin B1 (Homo sapiens, UniProt P46663); experiment: Selectivity panel; type: binding
T3 construct: purchased Eurofins Panlabs Taiwan Ltd
Excerpt: as §1

[2] = test system: Calcium channel L-type, phenylalkylamine; experiment: Selectivity panel; type: binding
Excerpt: as §1

Calcium channel N-type = target: T4, Calcium channel N-type (Rattus norvegicus, UniProt Q02294); experiment: Selectivity panel; type: binding
T4 construct: purchased Eurofins Panlabs Taiwan Ltd
Excerpt: as §1

Cannabinoid CB1 = target: T5, Cannabinoid CB1 (Homo sapiens, UniProt P21554); experiment: Selectivity panel; type: binding
T5 construct: purchased Eurofins Panlabs Taiwan Ltd
Excerpt: as §1

[3] = target: T6, Cholecystokinin CCK1 (CCKA) (Homo sapiens, UniProt P32238); experiment: Selectivity panel; type: binding
T6 construct: purchased Eurofins Panlabs Taiwan Ltd
Excerpt: as §1

[4] = test system: GABAA, flunitrazepam, central; experiment: Selectivity panel; type: binding
Excerpt: as §1

Glutamate, NMDA = experiment: Selectivity panel; type: binding
Excerpt: as §1

[5] = test system: Glycine, strychnine-sensitive; experiment: Selectivity panel; type: binding
Excerpt: as §1

Melatonin MT1 = target: T7, Melatonin MT1 (Homo sapiens, UniProt P48039); experiment: Selectivity panel; type: binding
T7 construct: purchased Eurofins Panlabs Taiwan Ltd
Excerpt: as §1

Muscarinic M2 = target: T8, Muscarinic M2 (Homo sapiens, UniProt P08172); experiment: Selectivity panel; type: binding
T8 construct: purchased Eurofins Panlabs Taiwan Ltd
Excerpt: as §1

Muscarinic M3 = target: T9, Muscarinic M3 (Homo sapiens, UniProt P20309); experiment: Selectivity panel; type: binding
T9 construct: purchased Eurofins Panlabs Taiwan Ltd
Excerpt: as §1

Nicotinic acetylcholine = experiment: Selectivity panel; type: binding
Excerpt: as §1

Opiate μ (OP3, MOP) = target: T10, Opiate μ (OP3, MOP) (Homo sapiens, UniProt P35372); experiment: Selectivity panel; type: binding
T10 construct: purchased Eurofins Panlabs Taiwan Ltd
Excerpt: as §1

Serotonin 5-HT1A = target: T11, Serotonin 5-HT1A (Homo sapiens, UniProt P08908); experiment: Selectivity panel; type: binding
T11 construct: purchased Eurofins Panlabs Taiwan Ltd
Excerpt: as §1

Sodium channel, Site 2 = experiment: Selectivity panel; type: binding
Excerpt: as §1

Tachykinin NK1 = target: T12, Tachykinin NK1 (Homo sapiens, UniProt P25103); experiment: Selectivity panel; type: binding
T12 construct: purchased Eurofins Panlabs Taiwan Ltd
Excerpt: as §1

Tachykinin NK3 = target: T13, Tachykinin NK3 (Homo sapiens, UniProt P29371); experiment: Selectivity panel; type: binding
T13 construct: purchased Eurofins Panlabs Taiwan Ltd
Excerpt: as §1

[6] = rats, 1 mg/kg p.o., observed 15 min to 8 h, rats with effect/total
[7] = rats, 3 mg/kg p.o., observed 15 min to 8 h, rats with effect/total
[8] = rats, 10 mg/kg p.o., observed 15 min to 8 h, rats with effect/total
[9] = rats, 30 mg/kg p.o., observed 15 min to 8 h, rats with effect/total
[10] = rats, 100 mg/kg p.o., observed 15 min to 8 h, rats with effect/total
[11] = rats, T-495 0.3 mg/kg p.o. alone, combination study, rats with effect/total
[12] = rats, donepezil 0.1 mg/kg + T-495 0.3 mg/kg p.o., rats with effect/total

T12 sequence (P25103 whole entry): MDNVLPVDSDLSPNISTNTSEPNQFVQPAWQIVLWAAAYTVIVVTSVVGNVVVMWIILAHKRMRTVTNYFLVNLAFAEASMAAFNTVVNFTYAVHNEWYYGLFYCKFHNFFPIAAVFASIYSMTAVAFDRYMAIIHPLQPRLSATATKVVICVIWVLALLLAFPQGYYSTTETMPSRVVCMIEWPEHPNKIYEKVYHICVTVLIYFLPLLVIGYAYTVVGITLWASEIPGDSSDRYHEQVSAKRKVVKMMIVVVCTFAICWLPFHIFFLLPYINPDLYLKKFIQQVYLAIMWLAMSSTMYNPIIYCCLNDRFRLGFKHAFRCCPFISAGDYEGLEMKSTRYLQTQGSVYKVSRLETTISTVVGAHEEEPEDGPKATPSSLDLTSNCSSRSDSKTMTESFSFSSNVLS
T10 sequence (P35372 whole entry): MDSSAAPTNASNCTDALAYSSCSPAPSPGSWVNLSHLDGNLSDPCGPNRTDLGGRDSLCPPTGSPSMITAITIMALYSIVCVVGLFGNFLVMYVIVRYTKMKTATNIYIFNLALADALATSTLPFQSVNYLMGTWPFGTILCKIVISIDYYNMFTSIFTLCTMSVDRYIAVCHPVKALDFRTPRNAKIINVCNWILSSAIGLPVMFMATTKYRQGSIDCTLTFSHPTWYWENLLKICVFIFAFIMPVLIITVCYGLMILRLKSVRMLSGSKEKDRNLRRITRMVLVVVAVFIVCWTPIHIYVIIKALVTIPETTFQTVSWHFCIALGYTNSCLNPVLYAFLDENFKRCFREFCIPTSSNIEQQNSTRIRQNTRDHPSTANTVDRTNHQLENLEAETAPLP
T4 sequence (Q02294 whole entry): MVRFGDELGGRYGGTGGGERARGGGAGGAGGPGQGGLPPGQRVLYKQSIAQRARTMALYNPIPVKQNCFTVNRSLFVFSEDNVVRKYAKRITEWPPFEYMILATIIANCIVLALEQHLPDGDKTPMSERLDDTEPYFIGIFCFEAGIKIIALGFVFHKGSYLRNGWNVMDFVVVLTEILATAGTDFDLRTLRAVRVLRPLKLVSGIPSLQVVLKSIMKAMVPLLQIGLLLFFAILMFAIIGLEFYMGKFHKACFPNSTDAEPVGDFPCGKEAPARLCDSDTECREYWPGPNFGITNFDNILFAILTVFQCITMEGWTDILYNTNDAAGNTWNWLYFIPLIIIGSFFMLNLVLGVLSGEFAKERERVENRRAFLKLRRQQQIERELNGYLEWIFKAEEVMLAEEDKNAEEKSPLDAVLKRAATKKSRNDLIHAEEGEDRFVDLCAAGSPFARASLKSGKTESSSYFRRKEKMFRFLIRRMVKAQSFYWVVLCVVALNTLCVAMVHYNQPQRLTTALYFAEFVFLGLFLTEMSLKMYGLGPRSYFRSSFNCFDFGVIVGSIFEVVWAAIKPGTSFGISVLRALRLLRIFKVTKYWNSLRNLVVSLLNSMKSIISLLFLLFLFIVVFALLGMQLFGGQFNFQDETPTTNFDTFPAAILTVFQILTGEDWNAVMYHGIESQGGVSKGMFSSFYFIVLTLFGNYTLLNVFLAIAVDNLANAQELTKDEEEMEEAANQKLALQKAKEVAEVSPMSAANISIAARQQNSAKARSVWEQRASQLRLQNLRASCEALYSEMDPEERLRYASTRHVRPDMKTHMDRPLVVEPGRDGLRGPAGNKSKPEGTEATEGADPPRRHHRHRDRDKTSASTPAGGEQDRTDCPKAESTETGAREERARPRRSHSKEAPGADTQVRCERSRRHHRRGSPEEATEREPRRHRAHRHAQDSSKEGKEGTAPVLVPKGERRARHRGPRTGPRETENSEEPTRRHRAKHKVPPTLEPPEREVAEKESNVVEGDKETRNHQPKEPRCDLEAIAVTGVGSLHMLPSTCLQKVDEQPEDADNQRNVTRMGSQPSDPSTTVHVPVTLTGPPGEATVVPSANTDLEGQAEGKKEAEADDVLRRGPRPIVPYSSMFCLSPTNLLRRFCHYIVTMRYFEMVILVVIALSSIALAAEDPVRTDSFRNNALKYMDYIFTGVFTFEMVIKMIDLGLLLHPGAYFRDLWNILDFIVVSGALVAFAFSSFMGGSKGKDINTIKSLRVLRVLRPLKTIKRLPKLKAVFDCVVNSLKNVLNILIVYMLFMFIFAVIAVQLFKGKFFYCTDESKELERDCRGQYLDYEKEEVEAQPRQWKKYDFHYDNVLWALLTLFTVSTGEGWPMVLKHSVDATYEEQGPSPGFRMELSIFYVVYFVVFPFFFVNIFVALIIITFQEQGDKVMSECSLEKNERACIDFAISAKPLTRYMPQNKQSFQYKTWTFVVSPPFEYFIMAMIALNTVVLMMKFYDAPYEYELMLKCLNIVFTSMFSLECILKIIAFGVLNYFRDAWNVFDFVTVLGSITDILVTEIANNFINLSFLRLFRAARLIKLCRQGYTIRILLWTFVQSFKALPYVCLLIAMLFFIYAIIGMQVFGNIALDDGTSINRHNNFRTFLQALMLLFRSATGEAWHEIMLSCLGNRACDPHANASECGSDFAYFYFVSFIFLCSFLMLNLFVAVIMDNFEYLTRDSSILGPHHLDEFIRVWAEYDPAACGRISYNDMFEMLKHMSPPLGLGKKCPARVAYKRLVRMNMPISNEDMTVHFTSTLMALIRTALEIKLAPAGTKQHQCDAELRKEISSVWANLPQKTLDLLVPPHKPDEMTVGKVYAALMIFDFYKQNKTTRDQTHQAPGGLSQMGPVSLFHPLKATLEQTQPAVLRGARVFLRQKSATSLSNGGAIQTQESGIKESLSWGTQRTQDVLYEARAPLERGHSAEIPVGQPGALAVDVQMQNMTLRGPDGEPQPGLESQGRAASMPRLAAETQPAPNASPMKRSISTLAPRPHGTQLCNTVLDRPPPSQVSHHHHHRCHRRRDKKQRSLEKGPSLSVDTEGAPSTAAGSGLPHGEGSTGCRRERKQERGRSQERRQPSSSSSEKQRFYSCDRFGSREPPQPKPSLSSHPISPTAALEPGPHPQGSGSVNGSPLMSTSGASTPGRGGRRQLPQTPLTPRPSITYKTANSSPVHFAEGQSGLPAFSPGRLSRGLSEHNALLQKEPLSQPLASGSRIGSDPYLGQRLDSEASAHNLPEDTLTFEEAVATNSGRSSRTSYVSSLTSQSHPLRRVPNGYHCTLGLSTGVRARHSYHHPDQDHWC
T13 sequence (P29371 whole entry): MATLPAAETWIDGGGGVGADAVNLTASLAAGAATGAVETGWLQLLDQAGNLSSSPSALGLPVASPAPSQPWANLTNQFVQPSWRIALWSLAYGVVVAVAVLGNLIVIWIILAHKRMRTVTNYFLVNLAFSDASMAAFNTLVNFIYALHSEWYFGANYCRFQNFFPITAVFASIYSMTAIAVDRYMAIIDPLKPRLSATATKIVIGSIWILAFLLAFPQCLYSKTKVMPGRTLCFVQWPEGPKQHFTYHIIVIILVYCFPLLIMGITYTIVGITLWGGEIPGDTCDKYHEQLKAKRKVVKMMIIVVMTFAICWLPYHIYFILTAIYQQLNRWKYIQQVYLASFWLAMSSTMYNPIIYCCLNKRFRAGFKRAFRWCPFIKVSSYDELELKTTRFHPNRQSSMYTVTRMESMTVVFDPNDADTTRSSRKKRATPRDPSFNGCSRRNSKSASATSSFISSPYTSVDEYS
T3 sequence (P46663 whole entry): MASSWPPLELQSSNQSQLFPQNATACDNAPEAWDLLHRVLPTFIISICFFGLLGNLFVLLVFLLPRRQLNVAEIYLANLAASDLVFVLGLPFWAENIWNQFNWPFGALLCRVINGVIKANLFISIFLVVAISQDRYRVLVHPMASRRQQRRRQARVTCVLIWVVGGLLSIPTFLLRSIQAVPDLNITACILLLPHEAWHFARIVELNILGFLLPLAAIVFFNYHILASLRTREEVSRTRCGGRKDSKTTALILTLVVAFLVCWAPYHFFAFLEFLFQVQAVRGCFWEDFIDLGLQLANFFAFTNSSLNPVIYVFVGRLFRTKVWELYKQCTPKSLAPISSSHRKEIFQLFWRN
T11 sequence (P08908 whole entry): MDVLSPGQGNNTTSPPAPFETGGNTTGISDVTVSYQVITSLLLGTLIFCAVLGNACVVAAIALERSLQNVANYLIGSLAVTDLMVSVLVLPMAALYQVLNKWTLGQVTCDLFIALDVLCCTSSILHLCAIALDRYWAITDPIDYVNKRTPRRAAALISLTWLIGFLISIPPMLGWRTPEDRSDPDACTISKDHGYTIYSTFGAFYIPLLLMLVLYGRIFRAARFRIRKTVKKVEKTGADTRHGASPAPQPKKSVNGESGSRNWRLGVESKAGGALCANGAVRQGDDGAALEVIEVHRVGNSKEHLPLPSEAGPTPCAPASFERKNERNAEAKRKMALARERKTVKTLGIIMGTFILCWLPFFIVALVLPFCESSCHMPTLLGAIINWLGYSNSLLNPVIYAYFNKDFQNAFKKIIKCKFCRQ
T8 sequence (P08172 whole entry): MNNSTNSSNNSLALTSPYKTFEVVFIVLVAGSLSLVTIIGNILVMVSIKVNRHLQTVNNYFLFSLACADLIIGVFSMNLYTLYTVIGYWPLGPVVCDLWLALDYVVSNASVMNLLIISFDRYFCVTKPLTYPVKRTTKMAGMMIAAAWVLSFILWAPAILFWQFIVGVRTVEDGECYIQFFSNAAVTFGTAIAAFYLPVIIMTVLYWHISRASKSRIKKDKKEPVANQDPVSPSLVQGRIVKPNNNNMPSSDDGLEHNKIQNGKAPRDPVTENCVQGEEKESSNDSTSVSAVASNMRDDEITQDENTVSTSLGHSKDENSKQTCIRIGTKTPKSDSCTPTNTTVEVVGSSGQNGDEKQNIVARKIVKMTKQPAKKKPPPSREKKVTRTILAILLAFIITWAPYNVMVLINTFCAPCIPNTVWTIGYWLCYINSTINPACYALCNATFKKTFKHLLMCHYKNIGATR

## Cc1ccc(Cc2cc3c(=O)n([C@H]4CCCC[C@@H]4O)cnc3c3ccccc23)cn1 [MK‐7622, 3‐((1S,2S)‐2‐hydroxycyclohexyl)‐6‐((6‐methylpyridin‐3‐yl)methyl)benzo[h]quinazolin‐4(3H)‐one, reference compound]
[1]; M1R KO mice (and wild‐type), 20 mg/kg p.o.
  IP1 production in the brainstem: slight reduction
[1]; M1R KO mice, 20 mg/kg p.o.
  IP1 production in hippocampus, prefrontal cortex, and striatum: did not cause a significant increase
[1]; wild‐type mice, 20 mg/kg p.o.
  IP1 production in the brainstem: slightly reduced
  IP1 production in the forebrain: increased
SD rats; SD, rat, in vivo, po, 3 mg/kg
  Convulsion: 0/6
  Fasciculation: 0/6
  Lacrimation: 0/6
  Loose or mucous stool or diarrhea: 2/6
  Miosis: 0/6
  Salivation: 0/6
SD rats; SD, rat, in vivo, po, 10 mg/kg
  Convulsion: 0/6
  Fasciculation: 0/6
  Lacrimation: 0/6
  Loose or mucous stool or diarrhea: 3/6
  Miosis: 0/6
  Salivation: 0/6
SD rats; SD, rat, in vivo, po, 30 mg/kg
  Convulsion: 0/6
  Fasciculation: 0/6
  Lacrimation: 0/6
  Loose or mucous stool or diarrhea: 6/6
  Miosis: 0/6
  Salivation: 0/6
SD rats; rat, in vivo
  dose difference between memory improvement and induction of cholinergic side effects, including diarrhea: onefold
SD rats; rat, in vivo, po, 3 mg/kg
  diarrhea score: tended to increase
Patients with AD
  cognition as adjunctive therapy with AChEIs: did not improve cognition
Patients with AD; estimated effective dose
  patients affected by diarrhea: 15%
Selectivity panel
  selectivity in a selectivity panel: exhibited inhibitory activities only against 5‐lipoxygenase and phosphodiesterase 4

## Cc1c(Cc2ccc(Cl)nc2)cc2c(c1Cl)OCN([C@H]1CCC[C@@H]1O)C2=O [T‐495, 8‐chloro‐6‐((6‐chloropyridin‐3‐yl)methyl)‐3‐((1S,2S)‐2‐hydroxycyclopentyl)‐7‐methyl‐2,3‐dihydro‐4H‐1,3‐benzoxazin‐4‐one]
[1]; M1R KO mice, 10 mg/kg p.o.
  IP1 production in hippocampus, prefrontal cortex, and striatum: did not cause a significant increase
[1]; wild‐type mice, 10 mg/kg p.o.
  IP1 production in hippocampus, prefrontal cortex, and striatum: significantly increased
SD rats; rats
  dose difference between memory improvement and induction of cholinergic side effects, including diarrhea: 100 fold
SD rats; [6]
  Convulsion: 0/6
  Fasciculation: 0/6
  Lacrimation: 0/6
  Loose or mucous stool or diarrhea: 0/6
  Miosis: 0/6
  Salivation: 0/6
SD rats; [7]
  Convulsion: 0/6
  Fasciculation: 0/6
  Lacrimation: 0/6
  Loose or mucous stool or diarrhea: 0/6
  Miosis: 0/6
  Salivation: 0/6
SD rats; [8]
  Convulsion: 0/6
  Fasciculation: 0/6
  Lacrimation: 0/6
  Loose or mucous stool or diarrhea: 0/6
  Miosis: 0/6
  Salivation: 0/6
SD rats; [9]
  Convulsion: 0/6
  Fasciculation: 0/6
  Lacrimation: 0/6
  Loose or mucous stool or diarrhea: 0/6
  Miosis: 0/6
  Salivation: 0/6
SD rats; [10]
  Convulsion: 1/6
  Fasciculation: 0/6
  Lacrimation: 0/6
  Loose or mucous stool or diarrhea: 5/6
  Miosis: 0/6
  Salivation: 1/6
SD rats; rats, 100 mg/kg p.o., vs vehicle
  diarrhea score: significantly increased
SD rats; [11]
  Convulsion: 0/6
  Fasciculation: 0/6
  Lacrimation: 0/6
  Loose, mucous stool, or diarrhea: 0/6
  Myosis: 0/6
  Salivation: 0/6
SD rats; rats, T‐495 0.3 mg/kg + donepezil 0.1 mg/kg
  cholinergic side effects, combination with donepezil: no cholinergic side effects were observed
SD rats; [12]
  Convulsion: 0/6
  Fasciculation: 0/6
  Lacrimation: 0/6
  Loose, mucous stool, or diarrhea: 0/6
  Myosis: 0/6
  Salivation: 0/6
SD rats; rats, doses up to 30 mg/kg p.o.
  cholinergic side effects: did not elicit any cholinergic side effects
Adrenergic β2
  inhibition at 10 µM: 15%
Angiotensin AT1
  inhibition at 10 µM: 23%
Bradykinin B1
  inhibition at 10 µM: 2%
[2]
  % inhibition at 10 μM: 19%
Calcium channel N-type
  inhibition at 10 µM: 0%
Cannabinoid CB1
  inhibition at 10 µM: 14%
[3]
  inhibition at 10 µM: 2%
[4]
  % inhibition at 10 μM: 12%
Glutamate, NMDA
  % inhibition at 10 μM: 14%
[5]
  % inhibition at 10 μM: 9%
Melatonin MT1
  inhibition at 10 µM: 29%
Muscarinic M2
  inhibition at 10 µM: 8%
Muscarinic M3
  inhibition at 10 µM: 20%
Nicotinic acetylcholine
  % inhibition at 10 μM: -4%
Opiate μ (OP3, MOP)
  inhibition at 10 µM: 12%
Serotonin 5-HT1A
  inhibition at 10 µM: 8%
Sodium channel, Site 2
  % inhibition at 10 μM: 1%
Tachykinin NK1
  inhibition at 10 µM: -2%
Tachykinin NK3
  inhibition at 10 µM: 5%
